Calls of active or inactive are those of the source. The rule behind the calls is not given here.
Tests used:
[1] = biological target: Adenosine receptor A3 (Homo sapiens) (UniProt P0DMS8); assay: A3 (h) Eurofins-Cerep binding assay; parameters: ligand concentration 0.15 nM; conditions: filed as agonist, Compound concentration 10.0 uM
[2] = biological target: T1, Alpha-2A adrenergic receptor (Homo sapiens) (UniProt P08913); assay: Alpha2A (h) Eurofins-Cerep binding assay; parameters: ligand concentration 1 nM; conditions: filed as antagonist, Compound concentration 10.0 uM
T1 sequence (whole entry): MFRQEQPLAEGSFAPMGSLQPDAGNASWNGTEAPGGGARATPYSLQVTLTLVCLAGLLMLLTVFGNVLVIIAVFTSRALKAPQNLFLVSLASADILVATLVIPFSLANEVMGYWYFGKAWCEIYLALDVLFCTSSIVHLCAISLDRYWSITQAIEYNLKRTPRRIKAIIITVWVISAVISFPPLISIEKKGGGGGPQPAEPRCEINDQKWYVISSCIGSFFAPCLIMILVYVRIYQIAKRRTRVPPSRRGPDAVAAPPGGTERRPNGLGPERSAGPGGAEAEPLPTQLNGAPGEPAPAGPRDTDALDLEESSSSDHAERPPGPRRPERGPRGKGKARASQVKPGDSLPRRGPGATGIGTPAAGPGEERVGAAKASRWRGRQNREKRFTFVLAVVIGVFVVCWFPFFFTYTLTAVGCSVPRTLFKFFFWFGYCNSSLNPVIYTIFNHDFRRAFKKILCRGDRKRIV

[3] = biological target: Calcitonin-gene-related peptide receptor, CALCRL/RAMP1 (Homo sapiens) (UniProt O60894+Q16602); assay: CGRP (h) Eurofins-Cerep binding assay; format: protein-complex assay; parameters: ligand concentration 0.03 nM; conditions: filed as agonist, Compound concentration 10.0 uM
[4] = biological target: MAO-B (amine oxidase [flavin-containing] B) (Homo sapiens, UniProt P27338); assay: MAO-B (h) recombinant enzyme Eurofins-Cerep enzyme and uptake assay; parameters: incubation time 60 min, incubation temperature 37°C, substrate/stimulus/tracer D-Luciferin derivative (4 µM); conditions: probe D-Luciferin derivative (4 µM), compound concentration 10 uM, read-out: % Inhibition of Control Values (Mean n=2)
Chain of MAO-B (amine oxidase [flavin-containing] B) (P27338 whole entry): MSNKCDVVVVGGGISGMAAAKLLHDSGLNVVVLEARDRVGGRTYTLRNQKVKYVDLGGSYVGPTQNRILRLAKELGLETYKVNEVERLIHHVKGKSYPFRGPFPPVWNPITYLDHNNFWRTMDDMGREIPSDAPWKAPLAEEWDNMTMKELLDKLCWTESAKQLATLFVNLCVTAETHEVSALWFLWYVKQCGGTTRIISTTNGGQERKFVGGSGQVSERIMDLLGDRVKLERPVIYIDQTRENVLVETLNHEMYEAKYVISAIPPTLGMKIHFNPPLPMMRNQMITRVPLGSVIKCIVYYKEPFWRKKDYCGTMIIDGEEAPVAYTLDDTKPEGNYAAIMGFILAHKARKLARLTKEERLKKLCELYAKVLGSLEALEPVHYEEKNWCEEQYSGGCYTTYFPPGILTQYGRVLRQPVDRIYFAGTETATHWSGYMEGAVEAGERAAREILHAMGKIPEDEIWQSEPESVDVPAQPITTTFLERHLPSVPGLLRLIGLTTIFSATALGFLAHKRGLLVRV

[5] = biological target: Cholecystokinin receptor type A (Homo sapiens) (UniProt P32238); assay: CCK1 (CCKA) (h) Eurofins-Cerep binding assay; parameters: ligand concentration 0.08 nM; conditions: filed as agonist, Compound concentration 10.0 uM
[6] = biological target: Tumor necrosis factor (Homo sapiens) (UniProt P01375); assay: TNF-alpha (h) Eurofins-Cerep binding assay; parameters: ligand concentration 0.1 nM; conditions: filed as agonist, Compound concentration 10.0 uM
Rattus norvegicus = organism: Rattus norvegicus; assay: SKCa channel Eurofins-Cerep binding assay; parameters: ligand concentration 0.007 nM; conditions: filed as antagonist, Compound concentration 10.0 uM
[7] = biological target: Muscarinic acetylcholine receptor M1 (Homo sapiens) (UniProt P11229); assay: M1 (h) Eurofins-Cerep binding assay; parameters: ligand concentration 2 nM; conditions: filed as antagonist, Compound concentration 10.0 uM
[8] = biological target: 5-hydroxytryptamine receptor 1B (Homo sapiens) (UniProt P28222); assay: 5-HT1B(h) Eurofins-Cerep binding assay; parameters: ligand concentration 1 nM; conditions: filed as antagonist, Compound concentration 10.0 uM
Chain of 5-hydroxytryptamine receptor 1B (Homo sapiens) (P28222 whole entry): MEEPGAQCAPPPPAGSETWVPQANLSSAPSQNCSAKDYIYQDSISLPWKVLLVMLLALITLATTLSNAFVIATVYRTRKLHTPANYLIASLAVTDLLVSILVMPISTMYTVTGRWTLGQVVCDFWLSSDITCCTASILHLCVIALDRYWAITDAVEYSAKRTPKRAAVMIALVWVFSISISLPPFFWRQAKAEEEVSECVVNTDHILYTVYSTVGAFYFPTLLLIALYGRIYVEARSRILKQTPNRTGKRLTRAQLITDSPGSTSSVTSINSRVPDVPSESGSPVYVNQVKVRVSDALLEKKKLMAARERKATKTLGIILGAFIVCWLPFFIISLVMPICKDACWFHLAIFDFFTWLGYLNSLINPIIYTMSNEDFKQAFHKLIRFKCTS

[9] = biological target: Adenosine receptor A2a (Homo sapiens) (UniProt P29274); assay: A2A (h) Eurofins-Cerep binding assay; parameters: ligand concentration 6 nM; conditions: filed as agonist, Compound concentration 10.0 uM
[10] = biological target: L-type Ca2+ channel (dihydropyridine site) (Rattus norvegicus, UniProt P22002+P27732+Q02485); assay: Ca2+ channel (L, dihydropyridine site) Eurofins-Cerep binding assay; format: protein assay; parameters: incubation time 90 min, incubation temperature RT, ligand concentration 0.1 nM; conditions: rat cerebral cortex, probe [3H]nitrendipine (0.1 nM), compound concentration 10 uM, read-out: % Inhibition of Control Specific Binding (Mean n=2)
[11] = biological target: Adenosine receptor A2b (Homo sapiens) (UniProt P29275); assay: A2B (h) Eurofins-Cerep binding assay; parameters: ligand concentration 5 nM; conditions: filed as antagonist, Compound concentration 10.0 uM
Chain of Adenosine receptor A2b (Homo sapiens) (P29275 whole entry): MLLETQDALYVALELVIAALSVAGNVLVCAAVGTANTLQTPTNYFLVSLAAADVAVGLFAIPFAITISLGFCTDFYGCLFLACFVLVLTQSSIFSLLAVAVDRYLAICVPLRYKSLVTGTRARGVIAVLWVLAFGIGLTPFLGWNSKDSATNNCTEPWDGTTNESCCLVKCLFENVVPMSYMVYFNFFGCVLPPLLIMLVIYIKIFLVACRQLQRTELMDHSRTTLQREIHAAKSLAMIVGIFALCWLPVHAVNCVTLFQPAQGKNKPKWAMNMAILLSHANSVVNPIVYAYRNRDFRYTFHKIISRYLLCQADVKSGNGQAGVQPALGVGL

[12] = biological target: Acetylcholinesterase (Homo sapiens) (UniProt P22303); assay: Acetylcholinesterase (h) Eurofins-Cerep enzyme and uptake assay; conditions: Compound concentration 10.0 uM
[13] = biological target: Translocator protein (Rattus norvegicus) (UniProt P16257); assay: BZD (peripheral) Eurofins-Cerep binding assay; parameters: ligand concentration 0.2 nM; conditions: filed as antagonist, Compound concentration 10.0 uM
Chain of Translocator protein (Rattus norvegicus) (P16257 whole entry, looked up): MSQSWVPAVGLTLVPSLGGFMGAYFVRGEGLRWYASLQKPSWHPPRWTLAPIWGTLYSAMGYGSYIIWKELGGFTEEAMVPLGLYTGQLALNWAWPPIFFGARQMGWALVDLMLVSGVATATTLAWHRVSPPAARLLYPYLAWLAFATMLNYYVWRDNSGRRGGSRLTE

[14] = biological target: Vasoactive intestinal polypeptide receptor 1 (Homo sapiens) (UniProt P32241); assay: VPAC1 (VIP1) (h) Eurofins-Cerep binding assay; parameters: ligand concentration 0.04 nM; conditions: filed as agonist, Compound concentration 10.0 uM
[15] = biological target: T2, 5-hydroxytryptamine receptor 3A (Homo sapiens) (UniProt P46098); assay: 5-HT3 (h) Eurofins-Cerep binding assay; parameters: ligand concentration 0.5 nM; conditions: filed as antagonist, Compound concentration 10.0 uM
T2 sequence (whole entry): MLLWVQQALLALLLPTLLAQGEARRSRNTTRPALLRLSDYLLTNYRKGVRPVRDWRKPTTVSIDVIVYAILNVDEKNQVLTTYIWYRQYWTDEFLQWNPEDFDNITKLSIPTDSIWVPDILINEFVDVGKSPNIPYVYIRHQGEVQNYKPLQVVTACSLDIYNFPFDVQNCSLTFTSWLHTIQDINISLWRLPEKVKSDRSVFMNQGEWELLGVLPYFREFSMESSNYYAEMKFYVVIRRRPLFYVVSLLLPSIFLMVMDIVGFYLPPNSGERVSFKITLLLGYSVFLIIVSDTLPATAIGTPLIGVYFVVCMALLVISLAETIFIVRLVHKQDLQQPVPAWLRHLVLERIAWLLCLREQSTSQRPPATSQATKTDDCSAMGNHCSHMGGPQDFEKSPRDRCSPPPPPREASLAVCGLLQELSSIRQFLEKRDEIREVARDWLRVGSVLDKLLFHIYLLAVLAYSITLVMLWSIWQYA

[16] = biological target: Glucocorticoid receptor (Homo sapiens) (UniProt P04150); assay: GR (h) Eurofins-Cerep binding assay; parameters: ligand concentration 1.5 nM; conditions: filed as agonist, Compound concentration 10.0 uM
Chain of Glucocorticoid receptor (Homo sapiens) (P04150 whole entry): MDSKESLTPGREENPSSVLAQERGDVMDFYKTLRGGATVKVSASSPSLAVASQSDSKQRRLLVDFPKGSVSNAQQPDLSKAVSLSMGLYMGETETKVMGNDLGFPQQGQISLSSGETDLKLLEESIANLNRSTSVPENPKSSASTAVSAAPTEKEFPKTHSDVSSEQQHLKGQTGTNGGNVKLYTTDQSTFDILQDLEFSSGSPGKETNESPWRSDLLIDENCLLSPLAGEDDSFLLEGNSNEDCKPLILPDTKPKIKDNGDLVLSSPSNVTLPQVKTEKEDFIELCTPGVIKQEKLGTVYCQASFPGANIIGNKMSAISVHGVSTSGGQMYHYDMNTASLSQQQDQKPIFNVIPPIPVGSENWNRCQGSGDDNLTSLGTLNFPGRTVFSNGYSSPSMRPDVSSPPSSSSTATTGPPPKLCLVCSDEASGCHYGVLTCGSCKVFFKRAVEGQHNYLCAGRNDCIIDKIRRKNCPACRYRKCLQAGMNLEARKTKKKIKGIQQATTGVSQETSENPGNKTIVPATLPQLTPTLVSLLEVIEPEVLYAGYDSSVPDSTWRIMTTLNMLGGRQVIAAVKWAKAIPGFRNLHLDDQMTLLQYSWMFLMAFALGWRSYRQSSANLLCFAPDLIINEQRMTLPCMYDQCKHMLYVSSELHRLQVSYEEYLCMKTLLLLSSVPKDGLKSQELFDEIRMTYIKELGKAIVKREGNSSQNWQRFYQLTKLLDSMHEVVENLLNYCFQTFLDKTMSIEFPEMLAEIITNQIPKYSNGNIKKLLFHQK

[17] = biological target: Estrogen receptor (Homo sapiens) (UniProt P03372); assay: Estrogen ER alpha (h) Eurofins-Cerep binding assay; parameters: ligand concentration 0.5 nM; conditions: filed as agonist, Compound concentration 10.0 uM
[18] = biological target: voltage-gated Na+ channel (site 2) (Rattus norvegicus, UniProt F1LQQ7+O08562+O88420+O88457+P04774+P04775+P08104+P15389+P15390+Q62968); assay: Na+ channel (site 2) Eurofins-Cerep binding assay; format: protein assay; parameters: incubation time 60 min, incubation temperature 37°C, ligand concentration 10 nM; conditions: rat cerebral cortex, probe [3H]batrachotoxin (10 nM), compound concentration 10 uM, read-out: % Inhibition of Control Specific Binding (Mean n=2)
[19] = biological target: Histamine H1 receptor (Homo sapiens) (UniProt P35367); assay: H1 (h) Eurofins-Cerep binding assay; parameters: ligand concentration 1 nM; conditions: filed as antagonist, Compound concentration 10.0 uM
Chain of Histamine H1 receptor (Homo sapiens) (P35367 whole entry): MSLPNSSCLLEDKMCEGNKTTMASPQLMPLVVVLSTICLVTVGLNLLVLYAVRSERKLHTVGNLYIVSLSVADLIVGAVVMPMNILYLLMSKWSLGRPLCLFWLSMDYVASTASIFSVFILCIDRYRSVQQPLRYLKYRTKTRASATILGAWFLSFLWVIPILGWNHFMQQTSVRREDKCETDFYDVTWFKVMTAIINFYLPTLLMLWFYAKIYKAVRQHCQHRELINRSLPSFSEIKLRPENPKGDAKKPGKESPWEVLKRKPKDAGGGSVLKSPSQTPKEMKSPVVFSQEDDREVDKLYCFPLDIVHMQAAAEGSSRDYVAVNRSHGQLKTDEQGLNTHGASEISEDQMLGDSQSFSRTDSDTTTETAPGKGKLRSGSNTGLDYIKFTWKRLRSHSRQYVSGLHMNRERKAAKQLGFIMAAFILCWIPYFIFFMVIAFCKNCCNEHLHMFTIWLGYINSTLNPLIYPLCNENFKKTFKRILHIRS

[20] = biological target: Glutamate NMDA receptor (Rattus norvegicus) (UniProt P35439+Q00959+Q00960+Q00961+Q62645+Q8VHN2+Q9R1M7); assay: PCP Eurofins-Cerep binding assay; format: protein-complex assay; parameters: ligand concentration 10 nM; conditions: filed as antagonist, Compound concentration 10.0 uM
[21] = biological target: Sodium-dependent dopamine transporter (Homo sapiens) (UniProt Q01959); assay: dopamine transporter (h) Eurofins-Cerep binding assay; parameters: ligand concentration 4 nM; conditions: filed as antagonist, Compound concentration 10.0 uM
Chain of Sodium-dependent dopamine transporter (Homo sapiens) (Q01959 whole entry): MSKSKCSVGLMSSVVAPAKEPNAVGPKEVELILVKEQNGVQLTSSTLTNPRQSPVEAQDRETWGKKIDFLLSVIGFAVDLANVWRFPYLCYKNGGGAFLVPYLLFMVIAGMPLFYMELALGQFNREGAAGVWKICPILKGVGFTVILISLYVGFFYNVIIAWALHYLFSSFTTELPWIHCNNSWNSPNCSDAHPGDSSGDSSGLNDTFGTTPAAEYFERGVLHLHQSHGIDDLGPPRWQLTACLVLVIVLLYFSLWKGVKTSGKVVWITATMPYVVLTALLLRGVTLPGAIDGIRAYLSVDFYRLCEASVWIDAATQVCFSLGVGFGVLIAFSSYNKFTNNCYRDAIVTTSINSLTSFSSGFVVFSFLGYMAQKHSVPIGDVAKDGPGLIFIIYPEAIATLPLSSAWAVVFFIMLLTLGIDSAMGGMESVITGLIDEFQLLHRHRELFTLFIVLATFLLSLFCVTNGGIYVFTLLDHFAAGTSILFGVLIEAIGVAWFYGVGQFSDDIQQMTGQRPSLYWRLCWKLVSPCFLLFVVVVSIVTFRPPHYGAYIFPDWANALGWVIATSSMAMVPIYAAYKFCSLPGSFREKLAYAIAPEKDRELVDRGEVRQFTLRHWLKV

[22] = biological target: Substance-P receptor (Homo sapiens) (UniProt P25103); assay: NK1 (h) Eurofins-Cerep binding assay; parameters: ligand concentration 0.05 nM; conditions: filed as agonist, Compound concentration 10.0 uM
[23] = biological target: Sodium-dependent serotonin transporter (Homo sapiens) (UniProt P31645); assay: 5-HT transporter (h) Eurofins-Cerep binding assay; parameters: ligand concentration 2 nM; conditions: filed as antagonist, Compound concentration 10.0 uM
[24] = biological target: Beta-2 adrenergic receptor (Homo sapiens) (UniProt P07550); assay: Beta2 (h) Eurofins-Cerep binding assay; parameters: ligand concentration 0.3 nM; conditions: filed as antagonist, Compound concentration 10.0 uM
Chain of Beta-2 adrenergic receptor (Homo sapiens) (P07550 whole entry, looked up): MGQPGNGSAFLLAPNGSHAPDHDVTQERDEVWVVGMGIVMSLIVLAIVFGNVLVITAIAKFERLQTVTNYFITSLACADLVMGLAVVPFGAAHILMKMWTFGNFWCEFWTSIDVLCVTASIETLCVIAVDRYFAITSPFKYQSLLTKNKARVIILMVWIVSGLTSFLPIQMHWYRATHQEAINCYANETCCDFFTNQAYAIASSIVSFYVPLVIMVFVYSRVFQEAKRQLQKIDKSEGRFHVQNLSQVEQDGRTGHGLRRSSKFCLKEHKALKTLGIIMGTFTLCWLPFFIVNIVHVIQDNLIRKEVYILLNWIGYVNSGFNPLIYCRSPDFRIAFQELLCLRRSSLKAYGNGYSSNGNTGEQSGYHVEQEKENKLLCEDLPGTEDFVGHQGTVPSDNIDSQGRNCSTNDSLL

[25] = biological target: Beta-1 adrenergic receptor (Homo sapiens) (UniProt P08588); assay: Beta1 (h) Eurofins-Cerep binding assay; parameters: ligand concentration 0.3 nM; conditions: filed as agonist, Compound concentration 10.0 uM
Bcl-2-like protein 1 = Bcl-2-like protein 1 (Homo sapiens, UniProt Q07817); assay: Time-resolved fluorescence energy transfer (TR-FRET) with BCL2L1
Chain of Bcl-2-like protein 1 (Q07817 whole entry): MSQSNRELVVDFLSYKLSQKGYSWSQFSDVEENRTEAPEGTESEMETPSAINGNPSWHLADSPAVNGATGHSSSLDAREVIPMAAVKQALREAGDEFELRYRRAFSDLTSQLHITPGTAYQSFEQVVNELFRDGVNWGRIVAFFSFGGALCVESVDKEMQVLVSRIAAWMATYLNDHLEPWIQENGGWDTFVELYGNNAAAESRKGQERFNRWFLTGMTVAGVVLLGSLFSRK

[26] = biological target: Sigma non-opioid intracellular receptor 1 (Homo sapiens, UniProt Q99720); assay: sigma (non-selective) (h) Eurofins-Cerep binding assay; parameters: ligand concentration 10 nM; conditions: filed as agonist, Compound concentration 10.0 uM
Chain of Sigma non-opioid intracellular receptor 1 (Q99720 whole entry): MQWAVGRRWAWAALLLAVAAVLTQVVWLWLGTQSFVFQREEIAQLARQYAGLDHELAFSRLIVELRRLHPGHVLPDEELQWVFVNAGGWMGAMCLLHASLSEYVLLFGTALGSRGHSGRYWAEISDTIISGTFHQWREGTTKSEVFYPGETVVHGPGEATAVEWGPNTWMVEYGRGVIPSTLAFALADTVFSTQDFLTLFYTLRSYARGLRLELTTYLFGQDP

[27] = biological target: Endothelin receptor type B (Homo sapiens) (UniProt P24530); assay: ETB (h) Eurofins-Cerep binding assay; parameters: ligand concentration 0.03 nM; conditions: filed as agonist, Compound concentration 10.0 uM
Chain of Endothelin receptor type B (Homo sapiens) (P24530 whole entry): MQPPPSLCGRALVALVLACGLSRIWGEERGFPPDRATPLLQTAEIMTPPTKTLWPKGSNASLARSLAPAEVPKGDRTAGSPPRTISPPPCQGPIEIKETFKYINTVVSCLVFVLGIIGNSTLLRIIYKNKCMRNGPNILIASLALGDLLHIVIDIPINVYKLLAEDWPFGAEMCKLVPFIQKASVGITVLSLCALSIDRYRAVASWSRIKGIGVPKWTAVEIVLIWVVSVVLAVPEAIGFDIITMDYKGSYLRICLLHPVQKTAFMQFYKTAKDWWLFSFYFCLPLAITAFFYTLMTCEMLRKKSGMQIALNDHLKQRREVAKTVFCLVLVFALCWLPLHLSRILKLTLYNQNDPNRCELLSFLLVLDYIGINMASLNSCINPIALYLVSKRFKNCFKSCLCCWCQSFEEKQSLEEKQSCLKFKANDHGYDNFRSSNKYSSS

[28] = biological target: Peroxisome proliferator-activated receptor gamma (Homo sapiens) (UniProt P37231); assay: PPARgamma (h) Eurofins-Cerep binding assay; parameters: ligand concentration 5 nM; conditions: filed as agonist, Compound concentration 10.0 uM
[29] = biological target: Androgen receptor (Homo sapiens) (UniProt P10275); assay: AR (h) Eurofins-Cerep binding assay; parameters: ligand concentration 1 nM; conditions: filed as agonist, Compound concentration 10.0 uM

Chain of Adenosine receptor A3 (Homo sapiens) (P0DMS8 whole entry): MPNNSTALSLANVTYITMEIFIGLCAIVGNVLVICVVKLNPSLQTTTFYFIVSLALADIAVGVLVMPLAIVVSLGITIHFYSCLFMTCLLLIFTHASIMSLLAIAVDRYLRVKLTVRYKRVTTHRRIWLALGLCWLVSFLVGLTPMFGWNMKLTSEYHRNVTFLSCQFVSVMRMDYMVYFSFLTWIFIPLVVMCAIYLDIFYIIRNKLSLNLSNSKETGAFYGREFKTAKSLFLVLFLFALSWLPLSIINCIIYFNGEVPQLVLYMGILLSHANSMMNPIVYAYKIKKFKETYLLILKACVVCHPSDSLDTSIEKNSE

Row | SMILES | % Inhibition of Control Specific Binding (Mean n=2) [1] | % Inhibition of Control Specific Binding (Mean n=2) [2] | % Inhibition of Control Specific Binding (Mean n=2) [3] | inhibition at 60 min, 10 µM [4] | % Inhibition of Control Specific Binding (Mean n=2) [5] | % Inhibition of Control Specific Binding (Mean n=2) [6] | % Inhibition of Control Specific Binding (Mean n=2) (Rattus norvegicus) | % Inhibition of Control Specific Binding (Mean n=2) [7] | % Inhibition of Control Specific Binding (Mean n=2) [8] | % Inhibition of Control Specific Binding (Mean n=2) [9] | inhibition at 90 min, 10 µM [10] | % Inhibition of Control Specific Binding (Mean n=2) [11] | % Inhibition of Control Values (Mean n=2) [12] | % Inhibition of Control Specific Binding (Mean n=2) [13] | % Inhibition of Control Specific Binding (Mean n=2) [14] | % Inhibition of Control Specific Binding (Mean n=2) [15] | % Inhibition of Control Specific Binding (Mean n=2) [16] | % Inhibition of Control Specific Binding (Mean n=2) [17] | inhibition at 60 min, 10 µM [18] | % Inhibition of Control Specific Binding (Mean n=2) [19] | further results
1 | CN(C)CC#Cc1ccc(OCCCc2sc(N3CCc4cccc(C(=O)Nc5nc6ccccc6s5)c4C3)nc2C(=O)O)c(F)c1 [A-1155463] | 71.6% | 12.1% | -6.8% | -2.2% | 98.9% | -6.3% | -3.7% | 19.1% | -7.1% | 51.8% | -21.8% | 32.8% | 7.1% | 41.3% | -8.1% | 2% | 37.8% | 11.9% | 32.3% | 69.2% | % Inhibition of Control Specific Binding (Mean n=2) [20]: 7.8%; % Inhibition of Control Specific Binding (Mean n=2) [21]: 31.6%; % Inhibition of Control Specific Binding (Mean n=2) [22]: 3.3%; % Inhibition of Control Specific Binding (Mean n=2) [23]: 8.5%; % Inhibition of Control Specific Binding (Mean n=2) [24]: -7%; % Inhibition of Control Specific Binding (Mean n=2) [25]: 1.4%; IC50 (Bcl-2-like protein 1): 0.55 nM (active); % Inhibition of Control Specific Binding (Mean n=2) [26]: 57.8%; % Inhibition of Control Specific Binding (Mean n=2) [27]: 9.6%; % Inhibition of Control Specific Binding (Mean n=2) [28]: 99.1%; % Inhibition of Control Specific Binding (Mean n=2) [29]: -1.8%
2 | O=C(Nc1nc2ccccc2s1)c1cccc2c1CN(c1nc(C(=O)O)c(CCOc3ccc(-n4ncc5cncnc54)cc3)s1)CC2 [A-1107969] | 54% | 1.9% | -9.4% | -2% | 68.9% | -1.7% | -12.2% | -1.6% | -39.6% | 28.3% | -2.2% | -14.8% | 14.5% | 77.2% | -8.2% | -5.7% | 55.4% | 8.4% | 3.3% | -9.3% | % Inhibition of Control Specific Binding (Mean n=2) [20]: 2.8%; % Inhibition of Control Specific Binding (Mean n=2) [21]: 3.6%; % Inhibition of Control Specific Binding (Mean n=2) [22]: 8.7%; % Inhibition of Control Specific Binding (Mean n=2) [23]: -2.3%; % Inhibition of Control Specific Binding (Mean n=2) [24]: -6.9%; % Inhibition of Control Specific Binding (Mean n=2) [25]: -0.4%; IC50 (Bcl-2-like protein 1): 270 nM (not active); % Inhibition of Control Specific Binding (Mean n=2) [26]: -47.8%; % Inhibition of Control Specific Binding (Mean n=2) [27]: 0.8%; % Inhibition of Control Specific Binding (Mean n=2) [28]: 98.2%; % Inhibition of Control Specific Binding (Mean n=2) [29]: -12.1%

— ChEMBL document CHEMBL4507311, “Data for DCP probe A-1155463” (2021)
